Data on seven compounds can be found in ChEMBL document CHEMBL4376821, “Recent Developments in Therapeutic Peptides for the Glucagon-like Peptide 1 and 2 Receptors” (J Med Chem, 2020).

Non-standard residues stand in square brackets, D forms with d. Residues, ends and D or L forms follow the SMILES beside them. *: point of attachment. Palmitoyl = CCCCCCCCCCCCCCCC(=O)*; Nle = CCCC[C@H](N)C(=O)O

Data set [1] in a line: Half life in human plasma. The format is ADME, cell-free.
In data set [2] the target is Glucagon-like peptide 1 receptor (Homo sapiens, UniProt P43220). The experiment in a line: Agonist activity at human GLP-1 receptor expressed in CHO-K1 cells assessed as cAMP induction by FRET assay. The format is functional, cell-based.
Chain of Glucagon-like peptide 1 receptor (P43220 whole entry): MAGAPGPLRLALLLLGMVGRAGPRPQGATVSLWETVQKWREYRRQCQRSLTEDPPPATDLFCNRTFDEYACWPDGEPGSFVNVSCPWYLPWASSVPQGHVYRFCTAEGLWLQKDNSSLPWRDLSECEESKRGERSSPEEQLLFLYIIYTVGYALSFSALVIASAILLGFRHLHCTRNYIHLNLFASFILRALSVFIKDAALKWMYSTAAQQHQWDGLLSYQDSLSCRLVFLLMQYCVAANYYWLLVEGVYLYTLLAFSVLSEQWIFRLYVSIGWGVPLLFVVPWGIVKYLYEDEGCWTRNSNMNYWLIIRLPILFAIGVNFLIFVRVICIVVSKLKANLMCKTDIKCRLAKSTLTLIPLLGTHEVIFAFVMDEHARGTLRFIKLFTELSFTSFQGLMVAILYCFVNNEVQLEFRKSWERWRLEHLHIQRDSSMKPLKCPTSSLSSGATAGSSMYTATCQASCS
In data set [3] the target is T1, Glucagon-like peptide 2 receptor (Homo sapiens, UniProt O95838).
T1 sequence (O95838 whole entry): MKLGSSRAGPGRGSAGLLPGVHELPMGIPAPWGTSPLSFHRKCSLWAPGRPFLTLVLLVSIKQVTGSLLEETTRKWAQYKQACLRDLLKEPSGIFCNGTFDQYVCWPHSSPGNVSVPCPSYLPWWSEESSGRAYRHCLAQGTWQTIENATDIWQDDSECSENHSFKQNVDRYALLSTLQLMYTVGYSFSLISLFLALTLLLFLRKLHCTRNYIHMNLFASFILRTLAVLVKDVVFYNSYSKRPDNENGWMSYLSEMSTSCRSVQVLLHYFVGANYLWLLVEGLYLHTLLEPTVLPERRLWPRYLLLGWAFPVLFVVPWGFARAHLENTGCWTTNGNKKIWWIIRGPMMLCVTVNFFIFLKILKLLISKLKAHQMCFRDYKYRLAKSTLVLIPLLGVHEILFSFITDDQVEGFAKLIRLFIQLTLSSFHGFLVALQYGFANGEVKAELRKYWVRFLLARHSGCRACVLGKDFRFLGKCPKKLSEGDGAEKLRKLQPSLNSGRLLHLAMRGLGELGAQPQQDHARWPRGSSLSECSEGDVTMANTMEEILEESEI
Briefly: Agonist activity at human GLP-2 receptor expressed in CHO-K1 cells assessed as cAMP induction by FRET assay. The format is functional, cell-based.

Data set [4] is described as follows: Half life in C57BL/6J mouse at 800 nmol/kg, sc measured up to 24 hrs by LC-MS/MS analysis. The format is ADME, organism-based. The following applies: in vivo.
Data set [5] in a line: Clearance in Sprague-Dawley rat at 0.2 mg/kg, iv. The following applies: in vivo. The format is ADME, organism-based.
Data set [6] is described as follows: Terminal half life in cynomolgus monkey at 0.25 mg/kg, sc. The format is ADME, organism-based, Macaca fascicularis. The following applies: in vivo, read-out: beta t1/2.
The nature of data set [7]: Half-life in Yucatan mini-pig at 0.15 mg, sc. The format is ADME, Sus scrofa domesticus. The conditions noted are these: in vivo.
The nature of data set [8]: Half life in human at 15 mg, sc qd measured on day 8 by liquid chromatography/tandem mass spectrometry method. The format is ADME, organism-based. The following applies: in vivo.
Data set [9] can be described thus: Half life in human. The format is ADME.
The species named for another data set is Homo sapiens. The experiment in a line: Induction of plasma citrulline level in human. The format is functional.
The nature of data set [10]: Half life in human plasma at 0.5 mg for 4 weeks followed by 0.5 mg for 4 weeks and subsequently 1 mg for weeks administered subcutaneously once weekly and measured up to 840 hrs post last dose by LC-MS/MS analysis. The format is ADME. The conditions noted are these: sc.

Take `CC[C@H](C)[C@H](NC(=O)[C@H](Cc1ccccc1)NC(=O)[C@H](CCC(=O)O)NC(=O)[C@H](CCCCN)NC(=O)[C@H](C)NC(=O)[C@H](C)NC(=O)[C@H](CCC(N)=O)NC(=O)CNC(=O)[C@H](CCC(=O)O)NC(=O)[C@H](CC(C)C)NC(=O)[C@H](Cc1ccc(O)cc1)NC(=O)[C@H](CO)NC(=O)[C@H](CO)NC(=O)[C@@H](NC(=O)[C@H](CC(=O)O)NC(=O)[C@H](CO)NC(=O)[C@@H](NC(=O)[C@H](Cc1ccccc1)NC(=O)[C@@H](NC(=O)CNC(=O)[C@H](CCC(=O)O)NC(=O)[C@H](C)NC(=O)[C@@H](N)Cc1cnc[nH]1)[C@@H](C)O)[C@@H](C)O)C(C)C)C(=O)N[C@@H](C)C(=O)N[C@@H](Cc1c[nH]c2ccccc12)C(=O)N[C@@H](CC(C)C)C(=O)N[C@H](C(=O)N[C@@H](CCCCN)C(=O)NCC(=O)N[C@@H](CCCNC(=N)N)C(=O)O)C(C)C`: the half-life in data set [1] was < 2 min.
Consider `CCCCCCCCCCCCCCCC(=O)NCCCC[C@H](NC(=O)[C@H](Cc1ccc(O)cc1)NC(=O)[C@@H](NC(=O)[C@H](CO)NC(=O)[C@H](CC(C)C)NC(=O)[C@H](CCC(=O)O)NC(=O)[C@H](CO)NC(=O)[C@@H](NC(=O)[C@H](Cc1ccccc1)NC(=O)[C@H](CO)NC(=O)CNC(=O)[C@H](CC(=O)O)NC(=O)CNC(=O)[C@@H](N)Cc1cnc[nH]1)[C@@H](C)O)[C@@H](C)O)C(=O)N[C@@H](CC(=O)O)C(=O)N[C@@H](C)C(=O)N[C@@H](CC(C)C)C(=O)N[C@@H](C)C(=O)N[C@@H](C)C(=O)N[C@@H](CCCNC(=N)N)C(=O)N[C@@H](CC(=O)O)C(=O)N[C@@H](Cc1ccccc1)C(=O)N[C@H](C(=O)N[C@@H](C)C(=O)N[C@@H](Cc1c[nH]c2ccccc12)C(=O)N[C@@H](CC(C)C)C(=O)N[C@H](C(=O)N[C@@H](CCC(N)=O)C(=O)N[C@H](C(=O)N[C@@H](CCCCN)C(=O)N[C@H](C(=O)N[C@H](C(=O)N[C@@H](CC(=O)O)C(N)=O)[C@@H](C)O)[C@@H](C)CC)[C@@H](C)O)[C@@H](C)CC)[C@@H](C)CC` (H-HGDGSFTSELSTYK(Palmitoyl)DALAARDFIAWLIQTKITD-NH2), for which the EC50 was determined as 0.17 nM in [2] and 1 nM in data set [3]. Further, in data set [4], the half-life was 2.7 h.
As for `CCCC[C@H](NC(=O)[C@H](CCC(=O)O)NC(=O)[C@H](CC(=O)O)NC(=O)[C@H](CO)NC(=O)[C@H](Cc1ccccc1)NC(=O)[C@H](CO)NC(=O)CNC(=O)[C@H](CC(=O)O)NC(=O)CNC(=O)[C@@H](N)Cc1cnc[nH]1)C(=O)N[C@H](Cc1ccccc1)C(=O)N[C@H](C(=O)N[C@H](C(=O)N[C@@H](CC(C)C)C(=O)N[C@@H](CC(=O)O)C(=O)N[C@@H](CC(C)C)C(=O)N[C@@H](CC(C)C)C(=O)N[C@@H](C)C(=O)N[C@@H](C)C(=O)N[C@@H](CCCNC(=N)N)C(=O)N[C@@H](CC(=O)O)C(=O)N[C@@H](Cc1ccccc1)C(=O)N[C@H](C(=O)N[C@@H](CC(N)=O)C(=O)N[C@@H](Cc1c[nH]c2ccccc12)C(=O)N[C@@H](CC(C)C)C(=O)N[C@H](C(=O)N[C@@H](CCC(N)=O)C(=O)N[C@H](C(=O)N[C@@H](CCCCN)C(=O)N[C@H](C(=O)N[C@H](C(=O)N[C@@H](CC(=O)O)C(N)=O)[C@@H](C)O)[C@@H](C)CC)[C@@H](C)O)[C@@H](C)CC)[C@@H](C)CC)[C@@H](C)CC)[C@@H](C)O` [FE 203799] (H-HGDGSFSDE[Nle][dF]TILDLLAARDFINWLIQTKITD-NH2), the clearance in data set [5] was < 0.3 mL/min/kg. Besides, the half-life in data set [6] and in [7] was > 30 h throughout.
Take `CC[C@H](C)[C@H](NC(=O)[C@H](Cc1ccccc1)NC(=O)[C@H](CC(=O)O)NC(=O)[C@H](CCCNC(=N)N)NC(=O)[C@H](C)NC(=O)[C@H](C)NC(=O)[C@H](CC(C)C)NC(=O)[C@H](CC(N)=O)NC(=O)[C@H](CC(=O)O)NC(=O)[C@H](CC(C)C)NC(=O)[C@@H](NC(=O)[C@@H](NC(=O)[C@H](CC(N)=O)NC(=O)[C@H](CCSC)NC(=O)[C@H](CCC(=O)O)NC(=O)[C@H](CC(=O)O)NC(=O)[C@H](CO)NC(=O)[C@H](Cc1ccccc1)NC(=O)[C@H](CO)NC(=O)CNC(=O)[C@H](CC(=O)O)NC(=O)CNC(=O)[C@@H](N)Cc1c[nH]cn1)[C@@H](C)O)[C@@H](C)CC)C(=O)N[C@@H](CC(N)=O)C(=O)N[C@@H](Cc1c[nH]c2ccccc12)C(=O)N[C@@H](CC(C)C)C(=O)N[C@H](C(=O)N[C@@H](CCC(N)=O)C(=O)N[C@H](C(=O)N[C@@H](CCCCN)C(=O)N[C@H](C(=O)N[C@H](C(=O)N[C@@H](CC(=O)O)C(=O)O)[C@@H](C)O)[C@@H](C)CC)[C@@H](C)O)[C@@H](C)CC` [TEDUGLUTIDE]: in [8], the half-life was 2 h.
Regarding H-HGDGSFTSELSTYLDALAARDFIAWLIQTKITD-NH2, the values for the EC50 in data set [2] and in data set [3] were 0.07 nM and 0.09 nM, respectively. Besides, in [4], the half-life is 0.9 h.
With “H-HGEGTFSSELATILDALAARDFIAWLIATKITDKKKKKK-NH2”, the half-life in [9] was 50 h. In the data set listed under Homo sapiens, the Activity result was “<=86%”.
SEMAGLUTIDE came in with a t1/2 in data set [10] of 165 h.

By EC50 is commonly meant the concentration needed to bring the measured effect to its halfway point. The clearance is the rate of elimination divided by the concentration.
